According to patent publication US20080064027A1, “TEL/Etv6-mediated inhibition of cell proliferation” (priority 2002, published 2008):
Several values for one entry are separate records, joined by “and”; a condition that tells them apart may be missing. Identical values can stand only once. Like-named read-outs stand apart in the source and are kept apart here.

Tested on: Stat3-ER expressing A375 cells
Assay type: cell-based
Description: In order to understand Stat3's ability to affect cell proliferation and cell death, we have examined the profile of genes expressed upon Stat3 activation in A375 cells using oligonucleotide microarrays.
Briefly, microarray analysis was performed using HG U95A GeneChips™ (Affymetrix, Santa Clara, USA) essentially according to the manufacturer's instructions. […] RNA from three independent experiments was pooled and biotin-labeled cRNA probes were generated from each sample starting from 10 μg of total cellular RNA. The resulting biotinylated cRNAs were hybridized to the Affymetrix U95A oligonucleotide array containing more than 12,000 sequences and signals detected. Chip analysis was performed using the Affymetrix Microarray Suite v5 (target intensity 500 used for chip scaling) and GeneSpring 4.2.1 (Silicon Genetics). Changes in gene expression were assessed by looking for concordant changes between replicates using a signed Wilcoxon rank test (as recommended by Affymetrix).

oncostatin M [OSM]
expression change (fold): H. sapiens mRNA; cDNA DZFZp586N012: 1.5 and 1.6
expression change (fold): Absent in melanoma 2 (Avge of clones): 2.9
expression change (fold): Alpha-1-antichymotrypsin precursor (Avge of clones): 2.8
expression change (fold): Aquaporin 3 (Avge of clones): 4.1
expression change (fold): Brain-derived neurotrophic factor (Avge of clones): 4.8
expression change (fold): CCAAT/enhancer binding protein (C/EBP), delta (Avge of clones): 2.7
expression change (fold): Cathepsin L (Avge of clones): 2.8
expression change (fold): Cytokine receptor-like factor 1 (Avge of clones): 1.9
expression change (fold): Death-associated protein kinase 1 (Avge of clones): 5.2
expression change (fold): Ephrin A1 precursor (Avge of clones): 2.1
expression change (fold): Ets variant gene 6 (Avge of clones): 3.9
expression change (fold): Fibronectin (Avge of clones): 2.0
expression change (fold): Fibronectin 1, isoform 1 preproprotein (Avge of clones): 1.6
expression change (fold): Glycine dehydrogenase (decarboxylating, glycine decdarboxylase, glycine cleavage system protein P) (Avge of clones): 2.5
expression change (fold): I factor (complement) (Avge of clones): 2.3
expression change (fold): Insulin-like growth factor binding protein 3 (Avge of clones): 2.4
expression change (fold): Intercellular adhesion molecule 1 precursor (Avge of clones): 1.9
expression change (fold): Interferon induced transmembrane protein 1 (9-27) (Avge of clones): 1.4
expression change (fold): Interleukin 8 (Avge of clones): 0.5
expression change (fold): Jun B proto-oncogene (Avge of clones): 2.5
expression change (fold): KIAA0161 gene product (Avge of clones): 1.6
expression change (fold): KIAA0303 protein (Avge of clones): 3.5
expression change (fold): KIAA0500 protein (Avge of clones): 3.0
expression change (fold): Killer cell lectin-like receptor subfamily C, member 2 (Avge of clones): 2.7
expression change (fold): Killer cell lectin-like receptor subfamily C, member 3 isoform NKG2-E (Avge of clones): 3.6
expression change (fold): Kynureninase (L-kynurenine hydrolase) (Avge of clones): 2.2
expression change (fold): MHC class II transactivator (Avge of clones): 3.0
expression change (fold): MHC, class II, DQ alpha 1 precursor (Avge of clones): 2.4
expression change (fold): MHC, class II, DQ beta 1 (Avge of clones): 2.5
expression change (fold): Major vault protein (Avge of clones): 2.7
expression change (fold): Nicotinamide N-methyltransferase (Avge of clones): 2.4
expression change (fold): Niemann-Pick disease, type C1 (Avge of clones): 2.1
expression change (fold): Oncostatin M receptor (Avge of clones): 2.0
expression change (fold): Osteoprotegrin (Avge of clones): 2.9
expression change (fold): Prostatic acid phosphatase precursor (Avge of clones): 7.4
expression change (fold): Ras-induced senescence 1 (Avge of clones): 1.8
expression change (fold): Regenerating islet-derived 1 alpha (pancreatic stone protein, pancreatic thread protein) (Avge of clones): 3.0
expression change (fold): Regulator of G protein signalling 16 (Avge of clones): 2.9
expression change (fold): STAT induced STAT inhibitor 3 (Avge of clones): 10.7
expression change (fold): Secreted phosphoprotein 1 (osteopontin, bone sialoprotein 1, early T-lymphocyte activation 1) (Avge of clones): 7.5
expression change (fold): Serine (or cysteine) protease inhibitor, clade B (ovalbumin), member 3 (Avge of clones): 27.8
expression change (fold): Small inducible cytokine A2 (monocyte chemotactic protein 1) (Avge of clones): 1.2
expression change (fold): Solute carrier family 2 (facilitated glucose transporter), member 3 (Avge of clones): 2.3
expression change (fold): Stanniocalcin 1 (Avge of clones): 3.7
expression change (fold): Tyrosine phosphatase/TIGR = HG620-HT620 (Avge of clones): 1.2
expression change (fold): v-fos FBJ murine osteosarcoma viral gene homologue (Avge of clones): 3.7
expression change (fold): v-jun avian sarcoma virus 17 oncogene homologue (Avge of clones): 1.2
expression change (fold): v-maf musculoaponeurotic fibrosarcoma oncogene homologue (avian) (Avge of clones): 3.0
expression change (fold): Aquaporin 3 (Avge of clones, 2nd listing): 8.0
expression change (fold): Fibronectin 1, isoform 1 preproprotein (Avge of clones, 2nd listing): 1.5
expression change (fold): Insulin-like growth factor binding protein 3 (Avge of clones, 2nd listing): 2.0
expression change (fold): Interleukin 8 (Avge of clones, 2nd listing): 0.9
expression change (fold): Kynureninase (L-kynurenine hydrolase) (Avge of clones, 2nd listing): 1.5
expression change (fold): Oncostatin M receptor (Avge of clones, 2nd listing): 1.9
expression change (fold): Prostatic acid phosphatase precursor (Avge of clones, 2nd listing): 1.3
expression change (fold): Secreted phosphoprotein 1 (osteopontin, bone sialoprotein 1, early T-lymphocyte activation 1) (Avge of clones, 2nd listing): 4.6
expression change (fold): v-jun avian sarcoma virus 17 oncogene homologue (Avge of clones, 2nd listing): 1.5
expression change (fold): Kynureninase (L-kynurenine hydrolase) (Avge of clones, 3rd listing): 1.7
expression change (fold): Absent in melanoma 2 (Clone1): 2.7
expression change (fold): Alpha-1-antichymotrypsin precursor (Clone1): 3.1
expression change (fold): Aquaporin 3 (Clone1): 4.5
expression change (fold): Brain-derived neurotrophic factor (Clone1): 4.8
expression change (fold): CCAAT/enhancer binding protein (C/EBP), delta (Clone1): 3.9
expression change (fold): Cathepsin L (Clone1): 2.3
expression change (fold): Cytokine receptor-like factor 1 (Clone1): 3.0
expression change (fold): Death-associated protein kinase 1 (Clone1): 3.5
expression change (fold): Ephrin A1 precursor (Clone1): 1.3
expression change (fold): Ets variant gene 6 (Clone1): 3.9
expression change (fold): Fibronectin (Clone1): 0.9
expression change (fold): Fibronectin 1, isoform 1 preproprotein (Clone1): 1.2
expression change (fold): Glycine dehydrogenase (decarboxylating, glycine decdarboxylase, glycine cleavage system protein P) (Clone1): 2.5
expression change (fold): I factor (complement) (Clone1): 2.5
expression change (fold): Insulin-like growth factor binding protein 3 (Clone1): 2.6
expression change (fold): Intercellular adhesion molecule 1 precursor (Clone1): 1.7
expression change (fold): Interferon induced transmembrane protein 1 (9-27) (Clone1): 2.2
expression change (fold): Interleukin 8 (Clone1): 0.4
expression change (fold): Jun B proto-oncogene (Clone1): 2.7
expression change (fold): KIAA0161 gene product (Clone1): 1.5
expression change (fold): KIAA0303 protein (Clone1): 4.5
expression change (fold): KIAA0500 protein (Clone1): 2.3
expression change (fold): Killer cell lectin-like receptor subfamily C, member 2 (Clone1): 4.3
expression change (fold): Killer cell lectin-like receptor subfamily C, member 3 isoform NKG2-E (Clone1): 6.7
expression change (fold): Kynureninase (L-kynurenine hydrolase) (Clone1): 2.6
expression change (fold): MHC class II transactivator (Clone1): 3.4
expression change (fold): MHC, class II, DQ alpha 1 precursor (Clone1): 2.5
expression change (fold): MHC, class II, DQ beta 1 (Clone1): 2.4
expression change (fold): Major vault protein (Clone1): 2.9
expression change (fold): Nicotinamide N-methyltransferase (Clone1): 2.8
expression change (fold): Niemann-Pick disease, type C1 (Clone1): 1.7
expression change (fold): Oncostatin M receptor (Clone1): 1.9
expression change (fold): Osteoprotegrin (Clone1): 5.2
expression change (fold): Prostatic acid phosphatase precursor (Clone1): 4.5
expression change (fold): Ras-induced senescence 1 (Clone1): 1.8
expression change (fold): Regenerating islet-derived 1 alpha (pancreatic stone protein, pancreatic thread protein) (Clone1): 3.0
expression change (fold): Regulator of G protein signalling 16 (Clone1): 3.7
expression change (fold): STAT induced STAT inhibitor 3 (Clone1): 11.6
expression change (fold): Secreted phosphoprotein 1 (osteopontin, bone sialoprotein 1, early T-lymphocyte activation 1) (Clone1): 3.8
expression change (fold): Serine (or cysteine) protease inhibitor, clade B (ovalbumin), member 3 (Clone1): 28.8
expression change (fold): Small inducible cytokine A2 (monocyte chemotactic protein 1) (Clone1): 0.9
expression change (fold): Solute carrier family 2 (facilitated glucose transporter), member 3 (Clone1): 1.9
expression change (fold): Stanniocalcin 1 (Clone1): 2.8
expression change (fold): Tyrosine phosphatase/TIGR = HG620-HT620 (Clone1): 0.9
expression change (fold): v-fos FBJ murine osteosarcoma viral gene homologue (Clone1): 2.9
expression change (fold): v-jun avian sarcoma virus 17 oncogene homologue (Clone1): 1.4
expression change (fold): v-maf musculoaponeurotic fibrosarcoma oncogene homologue (avian) (Clone1): 2.5
expression change (fold): Aquaporin 3 (Clone1, 2nd listing): 9.2
expression change (fold): Fibronectin 1, isoform 1 preproprotein (Clone1, 2nd listing): 0.6
expression change (fold): Insulin-like growth factor binding protein 3 (Clone1, 2nd listing): 2.4
expression change (fold): Interleukin 8 (Clone1, 2nd listing): 1.2
expression change (fold): Kynureninase (L-kynurenine hydrolase) (Clone1, 2nd listing): 1.8
expression change (fold): Oncostatin M receptor (Clone1, 2nd listing): 1.9
expression change (fold): Prostatic acid phosphatase precursor (Clone1, 2nd listing): 1.0
expression change (fold): Secreted phosphoprotein 1 (osteopontin, bone sialoprotein 1, early T-lymphocyte activation 1) (Clone1, 2nd listing): 3.5
expression change (fold): v-jun avian sarcoma virus 17 oncogene homologue (Clone1, 2nd listing): 1.8
expression change (fold): Kynureninase (L-kynurenine hydrolase) (Clone1, 3rd listing): 1.9
expression change (fold): Absent in melanoma 2 (Clone2): 3.1
expression change (fold): Alpha-1-antichymotrypsin precursor (Clone2): 2.4
expression change (fold): Aquaporin 3 (Clone2): 3.8
expression change (fold): Brain-derived neurotrophic factor (Clone2): 4.7
expression change (fold): CCAAT/enhancer binding protein (C/EBP), delta (Clone2): 1.6
expression change (fold): Cathepsin L (Clone2): 3.4
expression change (fold): Cytokine receptor-like factor 1 (Clone2): 0.9
expression change (fold): Death-associated protein kinase 1 (Clone2): 6.9
expression change (fold): Ephrin A1 precursor (Clone2): 2.9
expression change (fold): Ets variant gene 6 (Clone2): 4.0
expression change (fold): Fibronectin (Clone2): 3.1
expression change (fold): Fibronectin 1, isoform 1 preproprotein (Clone2): 1.9
expression change (fold): Glycine dehydrogenase (decarboxylating, glycine decdarboxylase, glycine cleavage system protein P) (Clone2): 2.5
expression change (fold): I factor (complement) (Clone2): 2.2
expression change (fold): Insulin-like growth factor binding protein 3 (Clone2): 2.1
expression change (fold): Intercellular adhesion molecule 1 precursor (Clone2): 2.1
expression change (fold): Interferon induced transmembrane protein 1 (9-27) (Clone2): 0.6
expression change (fold): Interleukin 8 (Clone2): 0.6
expression change (fold): Jun B proto-oncogene (Clone2): 2.2
expression change (fold): KIAA0161 gene product (Clone2): 1.7
expression change (fold): KIAA0303 protein (Clone2): 2.4
expression change (fold): KIAA0500 protein (Clone2): 3.8
expression change (fold): Killer cell lectin-like receptor subfamily C, member 2 (Clone2): 1.0
expression change (fold): Killer cell lectin-like receptor subfamily C, member 3 isoform NKG2-E (Clone2): 0.4
expression change (fold): Kynureninase (L-kynurenine hydrolase) (Clone2): 1.7
expression change (fold): MHC class II transactivator (Clone2): 2.6
expression change (fold): MHC, class II, DQ alpha 1 precursor (Clone2): 2.3
expression change (fold): MHC, class II, DQ beta 1 (Clone2): 2.6
expression change (fold): Major vault protein (Clone2): 2.5
expression change (fold): Nicotinamide N-methyltransferase (Clone2): 1.9
expression change (fold): Niemann-Pick disease, type C1 (Clone2): 2.4
expression change (fold): Oncostatin M receptor (Clone2): 2.1
expression change (fold): Osteoprotegrin (Clone2): 0.7
expression change (fold): Prostatic acid phosphatase precursor (Clone2): 10.2
expression change (fold): Ras-induced senescence 1 (Clone2): 1.9
expression change (fold): Regenerating islet-derived 1 alpha (pancreatic stone protein, pancreatic thread protein) (Clone2): 3.0
expression change (fold): Regulator of G protein signalling 16 (Clone2): 2.1
expression change (fold): STAT induced STAT inhibitor 3 (Clone2): 9.7
expression change (fold): Secreted phosphoprotein 1 (osteopontin, bone sialoprotein 1, early T-lymphocyte activation 1) (Clone2): 11.3
expression change (fold): Serine (or cysteine) protease inhibitor, clade B (ovalbumin), member 3 (Clone2): 26.7
expression change (fold): Small inducible cytokine A2 (monocyte chemotactic protein 1) (Clone2): 1.5
expression change (fold): Solute carrier family 2 (facilitated glucose transporter), member 3 (Clone2): 2.6
expression change (fold): Stanniocalcin 1 (Clone2): 4.6
expression change (fold): Tyrosine phosphatase/TIGR = HG620-HT620 (Clone2): 1.6
expression change (fold): v-fos FBJ murine osteosarcoma viral gene homologue (Clone2): 4.6
expression change (fold): v-jun avian sarcoma virus 17 oncogene homologue (Clone2): 1.0
expression change (fold): v-maf musculoaponeurotic fibrosarcoma oncogene homologue (avian) (Clone2): 3.5
expression change (fold): Aquaporin 3 (Clone2, 2nd listing): 6.7
expression change (fold): Fibronectin 1, isoform 1 preproprotein (Clone2, 2nd listing): 2.3
expression change (fold): Insulin-like growth factor binding protein 3 (Clone2, 2nd listing): 1.7
expression change (fold): Interleukin 8 (Clone2, 2nd listing): 0.7
expression change (fold): Kynureninase (L-kynurenine hydrolase) (Clone2, 2nd listing): 1.3
expression change (fold): Oncostatin M receptor (Clone2, 2nd listing): 2.0
expression change (fold): Prostatic acid phosphatase precursor (Clone2, 2nd listing): 1.7
expression change (fold): Secreted phosphoprotein 1 (osteopontin, bone sialoprotein 1, early T-lymphocyte activation 1) (Clone2, 2nd listing): 5.7
expression change (fold): v-jun avian sarcoma virus 17 oncogene homologue (Clone2, 2nd listing): 1.1
expression change (fold): Kynureninase (L-kynurenine hydrolase) (Clone2, 3rd listing): 1.4
